Several values for one entry are separate records, joined by “and”; a condition that tells them apart may be missing. Equal entries are not always repeated. Records with an inconclusive call do not appear.
Tested on: BDF1 mice, Friend leukemia sc, tumor weight T/C
Assay: NCI In Vivo Anticancer Drug Screen. Data for tumor model Friend Virus Leukemia (Solid) (subcutaneous) in B6D2F1 (BDF1) mice
Details: endpoint: mean tumor weight, higher = larger tumour
Procedure: The antitumor activity of compounds was measured in mice bearing transplantable tumors. Survival or tumor size were measured and the results are expressed as the measurement made in the treated group (T) divided by the measurement made in the vehicle treated control group (C). The tumor model used in this assay is Friend Virus Leukemia (Solid) (subcutaneous) in B6D2F1 (BDF1) mice

[1] = dose: 5.7 mg/kg/injection, schedule: Q01DX011 (ip), vehicle: carboxymethylcellulose (CMC)
[2] = dose: 11.5 mg/kg/injection, schedule: Q01DX011 (ip), vehicle: carboxymethylcellulose (CMC)

In the case of S=P(N1CCOCC1)(N1CC1)N1CC1, the T/C (dose: 12.5 mg/kg/injection, schedule: Q01DX011 (ip), vehicle: carboxymethylcellulose (CMC)) is reported as 71 % of control and the T/C (dose: 25.0 mg/kg/injection, schedule: Q01DX011 (ip), vehicle: carboxymethylcellulose (CMC)) is reported as 41 % of control.
CSc1ncnc2nc[nH]c12 was tested, and the T/C [1] was 155 % of control, the T/C [2] was 115 % of control and the T/C (dose: 22.5 mg/kg/injection, schedule: Q01DX011 (ip), vehicle: carboxymethylcellulose (CMC)) was 59 % of control and 81 % of control. For the same compound, the T/C (dose: 45.0 mg/kg/injection, schedule: Q01DX011 (ip), vehicle: carboxymethylcellulose (CMC)) was 35 % of control and 42 % of control and the T/C (dose: 90.0 mg/kg/injection, schedule: Q01DX011 (ip), vehicle: carboxymethylcellulose (CMC)) was 39 % of control.
For c1ccc2[nH]cnc2c1, the T/C (dose: 38.5 mg/kg/injection, schedule: Q01DX011 (ip), vehicle: carboxymethylcellulose (CMC)) was 82 % of control and 88 % of control, the T/C (dose: 77.0 mg/kg/injection, schedule: Q01DX011 (ip), vehicle: carboxymethylcellulose (CMC)) was 80 % of control and 83 % of control and the T/C (dose: 308.0 mg/kg/injection, schedule: Q01DX011 (ip), vehicle: carboxymethylcellulose (CMC)) was 102 % of control.
For CN(Cc1cnc2nc(N)nc(N)c2n1)c1ccc(C(=O)N[C@@H](CCC(=O)O)C(=O)O)cc1, the T/C (dose: 0.37 mg/kg/injection, schedule: Q01DX011 (ip), vehicle: saline) was 68 % of control, the T/C (dose: 0.5 mg/kg/injection, schedule: Q01DX011 (ip), vehicle: carboxymethylcellulose (CMC)) was 44 % of control and the T/C (dose: 0.75 mg/kg/injection, schedule: Q01DX011 (ip), vehicle: saline) was 91 % of control. The T/C (dose: 0.8 mg/kg/injection, schedule: Q01DX011 (ip), vehicle: carboxymethylcellulose (CMC)) was 71 % of control and 88 % of control, the T/C (dose: 1.4 mg/kg/injection, schedule: Q01DX011 (ip), vehicle: carboxymethylcellulose (CMC)) was 36 % of control and the T/C (dose: 1.5 mg/kg/injection, schedule: Q01DX011 (ip), vehicle: carboxymethylcellulose (CMC)) was 16 % of control. The T/C (dose: 1.5 mg/kg/injection, schedule: Q01DX011 (ip), vehicle: saline) was 49 % of control.
With CC(/C=N\N=C(N)N)=N/N=C(N)N the T/C [1] was 111 % of control, the T/C [2] was 70 % of control and the T/C (dose: 23.0 mg/kg/injection, schedule: Q01DX011 (ip), vehicle: carboxymethylcellulose (CMC)) was 96 % of control.
Cc1ccc(N2CCN(CCCN3CCN(c4ccc(Cl)cc4)CC3)CC2)cc1 was tested, and the T/C (dose: 7.5 mg/kg/injection, schedule: Q01DX011 (ip), vehicle: carboxymethylcellulose (CMC)) was 80 % of control, the T/C (dose: 15.0 mg/kg/injection, schedule: Q01DX011 (ip), vehicle: carboxymethylcellulose (CMC)) was 61 % of control and the T/C (dose: 30.0 mg/kg/injection, schedule: Q01DX011 (ip), vehicle: carboxymethylcellulose (CMC)) was 55 % of control and 50 % of control. The T/C (dose: 60.0 mg/kg/injection, schedule: Q01DX011 (ip), vehicle: carboxymethylcellulose (CMC)) was 49 % of control.
CC(=O)O[C@]1(C(C)=O)CC[C@H]2[C@@H]3C[C@H](C)C4=CC(=O)C=C[C@]4(C)[C@@]3(F)[C@@H](O)C[C@@]21C was tested, and the T/C (dose: 25.0 mg/kg/injection, schedule: Q01DX011 (sc), vehicle: steriod suspending solution) was 35 % of control, the T/C (dose: 37.5 mg/kg/injection, schedule: Q01DX011 (sc), vehicle: steriod suspending solution) was 34 % of control and the T/C (dose: 300.0 mg/kg/injection, schedule: Q01DX011 (sc), vehicle: steriod suspending solution) was 11 % of control.
With CCN(CC)c1ccc2cc3ccc(=[N+](CC)CC)cc-3oc2c1 the T/C (dose: 5.0 mg/kg/injection, schedule: Q01DX011 (ip), vehicle: carboxymethylcellulose (CMC)) was 102 % of control.
For NCC(O)c1ccc(O)c(O)c1 (stereo not drawn), the T/C (dose: 9.37 mg/kg/injection, schedule: Q01DX011 (ip), vehicle: saline) was 84 % of control, the T/C (dose: 18.75 mg/kg/injection, schedule: Q01DX011 (ip), vehicle: saline) was 69 % of control and the T/C (dose: 37.5 mg/kg/injection, schedule: Q01DX011 (ip), vehicle: saline) was 30 % of control.
With O=c1cnn(C2OC(CO)C(O)C2O)c(=O)[nH]1 (stereo not drawn) the T/C (dose: 62.5 mg/kg/injection, schedule: Q01DX011 (ip), vehicle: saline) was 160 % of control, the T/C (dose: 125.0 mg/kg/injection, schedule: Q01DX011 (ip), vehicle: saline) was 170 % of control and the T/C (dose: 500.0 mg/kg/injection, schedule: Q01DX011 (ip), vehicle: saline) was 105 % of control.
Brc1ncnc2nc[nH]c12 was tested, and the T/C (dose: 75.0 mg/kg/injection, schedule: Q01DX011 (ip), vehicle: carboxymethylcellulose (CMC)) was 51 % of control, the T/C (dose: 113.0 mg/kg/injection, schedule: Q01DX011 (ip), vehicle: carboxymethylcellulose (CMC)) was 82 % of control and the T/C (dose: 171.0 mg/kg/injection, schedule: Q01DX011 (ip), vehicle: carboxymethylcellulose (CMC)) was 43 % of control. The T/C (dose: 256.0 mg/kg/injection, schedule: Q01DX011 (ip), vehicle: carboxymethylcellulose (CMC)) was 34 % of control.
